Like-named read-outs stand apart in the source and are kept apart here. Values belong to the molecule of their own block, whether it stands above or below them.
Key:
[1] = test system: PC-3 prostate cancer cells; experiment: MTT cytotoxicity assay, PC-3; type: cell-based; conditions: 48 h, mean ± SD of three experiments, NA = no or negligible activity in initial crystal violet screening
Experimental: (§1) The cytotoxic activity of the new synthesized compounds was tested in different mammalian cancer cells, breast cancer (+ve ER) (MCF-7), breast cancer (−ve ER) (MDA-MB-231), tongue (oral cancer) (SAS), prostate cancer (PC-3), colorectal cancer (HCT-116) and hepatocellular carcinoma (HuH-7 and HepG-2). The cell lines were obtained from the American Type Culture Collection (ATCC). The cells were cultivated at 37 °C and 5% CO2 in DMEM (Lonza) medium supplemented with 10% fetal bovine serum (Lonza), 100 IU/mLpenicillin and 100 µg/mL streptomycin (Lonza). Cisplatin was used as a positive control and was obtained from Sigma-Aldrich. The synthesized compounds were solubilized in DMSO and stored at −20 °C. For the initial screening, 0.5% crystal violet was used. The viability of the cells were determined by using the MTT reagent.
(§2) “The cells were seeded in a 96-well plate and serial dilutions of the tested compounds or cisplatin was added after overnight incubation of the cells at 37 °C and 5% CO2. DMSO was used as a negative control (0.1%). After that, MTT (5 mg/mL PBS) was added after 48 hours of incubation. The formazan crystals were solubilized by the acidified SDS solution. The absorbance was recorded at 570 nm by Biotech ELx-800™ plate reader (Winooski, VT, USA). The viability assay was performed 3 times and the standard deviation was determined (±). IC50 was calculated as the concentration that causes 50% inhibition of cell growth. The selectivity index was calculated as previously reported” [26, 27].

[2] = test system: HCT-116 colorectal cancer cells; experiment: MTT cytotoxicity assay, HCT-116; type: cell-based; conditions: mean ± SD of three experiments, NA = no or negligible activity in initial crystal violet screening, read-out: IC50 Colon HCT-116
Experimental: as §1
(§3) “The cells were seeded in a 96-well plate and serial dilutions of the tested compounds or cisplatin was added after overnight incubation of the cells at 37 °C and 5% CO2. DMSO was used as a negative control (0.1%). After that, MTT (5 mg/mL PBS) was added after 48 hours of incubation. […] The absorbance was recorded at 570 nm by Biotech ELx-800™ plate reader (Winooski, VT, USA). The viability assay was performed 3 times and the standard deviation was determined (±). […] The selectivity index was calculated as previously reported” [26, 27].

[3] = test system: MCF-7 breast cancer (+ve ER) cells; experiment: MTT cytotoxicity assay, MCF-7; type: cell-based; conditions: mean ± SD of three experiments, NA = no or negligible activity in initial crystal violet screening
Experimental: as §1, §2

HepG2 liver cancer cells = experiment: MTT cytotoxicity assay, HepG2; type: cell-based; conditions: mean ± SD of three experiments, NA = no or negligible activity in initial crystal violet screening
Experimental: as §1, §2

[4] = test system: MDA-MB-231 breast cancer (−ve ER) cells; experiment: MTT cytotoxicity assay, MDA-MB-231; type: cell-based; conditions: mean ± SD of three experiments, NA = no or negligible activity in initial crystal violet screening
Experimental: as §1, §2

[5] = test system: SAS tongue carcinoma (oral cancer) cells; experiment: MTT cytotoxicity assay, SAS; type: cell-based; conditions: 48 h, mean ± SD of three experiments, NA = no or negligible activity in initial crystal violet screening
Experimental: as §1, §2

HuH-7 liver cancer cells = experiment: MTT cytotoxicity assay, HuH-7; type: cell-based; conditions: mean ± SD of three experiments, NA = no or negligible activity in initial crystal violet screening
Experimental: as §1, §3

[6] = test system: seven cancer cell lines (MCF-7, MDA-MB-231, SAS, PC-3, HCT-116, HuH-7, HepG2); experiment: Anticancer screening against the panel of seven cancer cell lines (crystal violet initial screening); type: cell-based; conditions: concentration of 50 μM
Experimental: To evaluate the anticancer activity of the 13 newly synthesized compounds, we screened their activities at a concentration of 50 μM against seven cancer cell lines, including breast cancer (positive [MCF-7] and negative [MDA-MB-231] for estrogen receptor expression), tongue carcinoma (SAS), prostate cancer (PC-3), colorectal cancer (HCT-116) and liver cancer (HuH-7 and HepG2) cell lines. […] The 3-(4,5-dimethylthiazol-2-yl)-2,5-diphenyltetrazolium bromide (MTT) assay was performed to determine the concentration of the active compounds needed to kill 50% of cells.
as §1

SMILES: N.N.[Cl][Pt][Cl] [Cisplatin, reference compound]
- IC50 [1]: 12 ± 1.25 µM
- IC50 ([2]; 48 h): 8 ± 0.76 µM
- IC50 ([3]; 48 h): 9 ± 2.43 µM
- IC50 (HepG2 liver cancer cells; 48 h): 10 ± 0.65 µM
- IC50 ([4]; 48 h): 15 ± 0.71 µM
- IC50 [5]: 4.5 ± 0.34 µM
- IC50 (HuH-7 liver cancer cells; 48 h): 14.7 ± 0.5 µM

SMILES: Cc1ccc(C2CC(=O)CC(c3ccc(C)cc3)C2(C(=O)Nc2ccc(Cl)cn2)C(=O)Nc2ccc(Cl)cn2)cc1 (stereo not drawn) [Compound 3b, N,N′-bis(5-Chloropyridin-2-yl)-4-oxo-2,6-di-p-tolylcyclohexane-1,1-dicarboxamide]
- melting point: 145 to 146 °C

SMILES: O=C1CC(c2ccc(Br)cc2)C(C(=O)Nc2ccccn2)(C(=O)Nc2ccccn2)C(c2ccc(Br)cc2)C1 (stereo not drawn) [Compound 3e, 2,6-bis(4-Bromorophenyl)-4-oxo-N,N′-di(pyridin-2-yl)cyclohexane-1,1-dicarboxamide]
- IC50 ([3]; 48 h): 12 ± 0.54 µM
- anticancer activity in initial screening [6]: showed different levels of anticancer activities
- IC50 (HepG2 liver cancer cells; 48 h): 8 ± 0.96 µM
- IC50 ([4]; 48 h): 5 ± 0.5 µM

SMILES: O=C1CC(c2cccc([N+](=O)[O-])c2)C(C(=O)Nc2ccc(Cl)cn2)(C(=O)Nc2ccc(Cl)cn2)C(c2cccc([N+](=O)[O-])c2)C1 (stereo not drawn) [Compound 3f, N,N′-bis(5-Chloropyridin-2-yl)-2,6-bis(3-nitrophenyl)-4-oxocyclohexane-1,1-dicarboxamide]
- melting point: 174 to 175 °C

SMILES: COc1ccc(C2CC(=O)CC(c3ccc(OC)cc3)C2(C(=O)Nc2ccc(Cl)cn2)C(=O)Nc2ccc(Cl)cn2)cc1 (stereo not drawn) [Compound 3g, N,N′-bis(5-Chloropyridin-2-yl)-2,6-bis(4-methoxyphenyl)-4-oxocyclohexane-1,1-dicarboxamide]
- melting point: 203 to 204 °C

SMILES: O=C1CC(c2ccc3ccccc3c2)C(C(=O)Nc2ccc(Cl)cn2)(C(=O)Nc2ccc(Cl)cn2)C(c2ccc3ccccc3c2)C1 (stereo not drawn) [Compound 3h, N,N′-bis(5-Chloropyridin-2-yl)-2,6-di(naphthalen-2-yl)-4-oxocyclohexane-1,1-dicarboxamide]
- melting point: 114 to 115 °C

SMILES: O=C1CC(c2cccs2)C(C(=O)Nc2ccc(Cl)cn2)(C(=O)Nc2ccc(Cl)cn2)C(c2cccs2)C1 (stereo not drawn) [Compound 3i, N,N′-bis(5-Chloropyridin-2-yl)-4-oxo-2,6-di(thiophen-2-yl)cyclohexane-1,1-dicarboxamide]
- melting point: 165 to 166 °C

SMILES: O=C1CC(c2ccco2)C(C(=O)Nc2ccc(Cl)cn2)(C(=O)Nc2ccc(Cl)cn2)C(c2ccco2)C1 (stereo not drawn) [Compound 3j, N,N′-bis(5-Chloropyridin-2-yl)-2,6-di(furan-2-yl)-4-oxocyclohexane-1,1-dicarboxamide]
- IC50 ([3]; Homo sapiens, MCF7, 48 h): 50 ± 0.78 µM
- IC50 (HepG2 liver cancer cells; Homo sapiens, HepG2, 48 h): > 50 µM
- IC50 ([4]; Homo sapiens, MDA-MB-231, 48 h): 45 ± 3 µM
- melting point: 160 to 161 °C

SMILES: O=C1CC(c2ccc(C(F)(F)F)cc2)C(C(=O)Nc2ccc(Cl)cn2)(C(=O)Nc2ccc(Cl)cn2)C(c2ccc(C(F)(F)F)cc2)C1 (stereo not drawn) [Compound 3l, N,N′-bis(5-Chloropyridin-2-yl)-4-oxo-2,6-bis(4-(trifluoromethyl)phenyl)cyclohex-ane-1,1-dicarboxamide]
- IC50 [1]: > 50 µM
- IC50 ([2]; Homo sapiens, HCT-116, 48 h): 6 ± 0.78 µM
- IC50 ([3]; Homo sapiens, MCF7, 48 h): 18 ± 1.71 µM
- anticancer activity in initial screening [6]: showed different levels of anticancer activities
- IC50 (HepG2 liver cancer cells; Homo sapiens, HepG2, 48 h): 25 ± 0.38 µM
- IC50 ([4]; Homo sapiens, MDA-MB-231, 48 h): 5 ± 0.25 µM
- IC50 [5]: 9 ± 0.38 µM
- melting point: 138 to 139 °C
- IC50 (HuH-7 liver cancer cells; Homo sapiens, Huh-7, 48 h): 4.5 ± 0.3 µM

Continued, in another order:

- melting point: 248 to 249 °C
SMILES: O=C1CC(c2ccccc2)C(C(=O)Nc2ccccn2)(C(=O)Nc2ccccn2)C(c2ccccc2)C1 (stereo not drawn) [Compound 3a, 4-Oxo-2,6-diphenyl-N,N′-di(pyridin-2-yl)cyclohexane-1,1-dicarboxamide]

- melting point: 231 to 232 °C
SMILES: O=C1CC(c2ccc(Cl)cc2)C(C(=O)Nc2ccccn2)(C(=O)Nc2ccccn2)C(c2ccc(Cl)cc2)C1 (stereo not drawn) [Compound 3c, 2,6-bis(4-Chlorophenyl)-4-oxo-N,N′-di(pyridin-2-yl)cyclohexane-1,1-dicarboxamide]
- IC50 [1]: 25 ± 1.42 µM
- IC50 ([3]; Homo sapiens, MCF7, 48 h): 10 ± 0.62 µM
- anticancer activity in initial screening [6]: showed different levels of anticancer activities
- IC50 (HepG2 liver cancer cells; Homo sapiens, HepG2, 48 h): 8 ± 0.89 µM
- IC50 ([4]; Homo sapiens, MDA-MB-231, 48 h): 7 ± 1.12 µM
- IC50 [5]: 15 ± 1.3 µM

- melting point: 210 to 211 °C
SMILES: O=C1CC(c2ccc(Cl)cc2Cl)C(C(=O)Nc2ccccn2)(C(=O)Nc2ccccn2)C(c2ccc(Cl)cc2Cl)C1 (stereo not drawn) [Compound 3d, 2,6-bis(2,4-Dichlorophenyl)-4-oxo-N,N′-di(pyridin-2-yl)cyclohexane-1,1-dicarboxamide]
- IC50 ([3]; Homo sapiens, MCF7, 48 h): > 50 µM
- anticancer activity in initial screening [6]: showed different levels of anticancer activities
- IC50 (HepG2 liver cancer cells; Homo sapiens, HepG2, 48 h): > 50 µM
- IC50 ([4]; Homo sapiens, MDA-MB-231, 48 h): 18 ± 0.87 µM

- melting point: 213 to 214 °C
SMILES: O=C1CC(c2cccc(Br)c2)C(C(=O)Nc2ccc(Cl)cn2)(C(=O)Nc2ccc(Cl)cn2)C(c2cccc(Br)c2)C1 (stereo not drawn) [Compound 3k, 2,6-bis(3-Bromophenyl)-N,N′-bis(5-chloropyridin-2-yl)-4-oxocyclohexane-1,1-dicarboxamide]
- anticancer activity in initial screening [6]: showed different levels of anticancer activities

- melting point: 245 to 246 °C
SMILES: O=C1CC(c2ccc(F)cc2)C(C(=O)Nc2ccccn2)(C(=O)Nc2ccccn2)C(c2ccc(F)cc2)C1 (stereo not drawn) [Compound 3m, 2,6-bis(4-Fluorophenyl)-4-oxo-N,N′-di(pyridin-2-yl)cyclohexane-1,1-dicarboxamide]

From paper PMC6480224, “Synthesis of Pyridine-Dicarboxamide-Cyclohexanone Derivatives: Anticancer and α-Glucosidase Inhibitory Activities and In Silico Study” (Molecules, 2019)
